“Also recorded” adds a separate entry of the source. Where two headings read alike, the source gives them in different places.
Columns and labels:
[1] = test system: G. stearothermophilus ATCC 7953 spores; assay: Sterile efficacy on inoculated lumens, half-cycle of each TSO3 cycle; assay type: cell-based; conditions: for sterility result in words, gas replacing ozone after hydrogen peroxide injection: all three cycles, gas injected after hydrogen peroxide
Excerpt: The test evaluated the sterile efficacy on inoculated devices. Inoculated wires were inserted in tubing and afterwards in pouches. The pouches were also placed at the top of the loading carriage in the sterilization chamber.
The same loads were used for the three series of tests performed: ozone, oxygen and nitric oxide. The length, diameter, material and type of tubing were different for each cycle and are described in Table 3. The inoculated lumens were placed in a special load representing an average load for the three cycles.
The lumens used to evaluate the sterile efficacy were inoculated according to protocol MCB-09-A07 rev 9. The wire method was used. The wires were inoculated with 10 μL of a G. stearothermophilus ATCC 7953 spores suspension of 1.0×10^6 to 2.5×10^6 UFC/10 μL. The inoculated wires were left to dry overnight at normal room conditions.
Test loads were exposed to a half-cycle of each cycle. For the experiment with oxygen and nitrogen oxide, ozone was replaced by the gas to be tested. A burette was also plugged on the valve system in order to precisely determine the H2O2 injected volume.
The baseline of sterile efficacy on the inoculated lumens used in each cycle was established using only hydrogen peroxide. Cycles using hydrogen peroxide and ozone were performed to compare the efficacy of oxygen and nitrogen oxide to ozone.
The oxygen was injected in the chamber using the same system as that used for ozone. The ozone generator was turned off.
The NO was injected however directly in the chamber from an independent NO cylinder (Praxair). […] By doing so, the gas was forced into the chamber.
All tests were performed outside in order to limit possible dangers from accidental leaks. A NO detector was used. A long tube was plugged into the catalyst converter unit, to allow the NO to be eliminated far from the set-up. A calculation was performed (see below) to determine the number of valve injections necessary to obtain a concentration of 2 mg/L. • Valve volume: 3.3 mL (Volume calculated in R-1937) • NO Density NTP: 1.25 g/L • Sterilisation chamber volume: 125 L • Finale concentration desired: 2 mg/L • NO Pressure: 3 psig • Corrected volume: 3300×((14.7+3)/14.7)=3973.2 μL • Mass to be injected: 0.002 g/L×125 L=0.25 gno • Masse injected by each injection: 1.25 g/L×0.003974 L=4.9665×10^−3 g/injection • Number of injections required: 0.25 gno/4.9665×10^−3 g/injection=50 injections

spores [2] = conditions: 3.4 mL per pulse; half-cycle of Cycle 1; Teflon 1 mm x 80 cm
Protocol: In order to inject a high volume at once, a valve separated by Teflon tubing was used instead of the normally used microvalve (TSO3 #: AM-213-001). The tubing length was determined by the volume to be injected. Since the volume contained in the valve is significant, two sizes of valves were used. The first type (TSO3 #: CM-900-157) with an orifice of 0.062″, was used for a volume up to 1.5 mL. The second Neptune type, with an orifice of 0.156″, (TSO3 #: CM-900-156), was used for a volume up to 3.5 mL. The larger valve size also helps to push the large liquid volume into the chamber. For the 35 μL volume, a Burket 7616 micropump (TSO3 #: CM-113-001) was used. For the 23 μL volume, a larger, specially-made block was used.
Two cycles were used for this experiment. To test the sterility, Cycle 1 (half-cycle) was used, where the injection step of the conditioning phase was modified with a variation in volume and pulse for each attempt, as previously described. As for the condensation effect, Cycle 3, consisting of four phases, was utilized. This cycle was chosen due to the fact that a greater quantity of hydrogen peroxide was injected for the cycle, making it the worst case scenario. […] After exposure to a half-cycle of Cycle 1, the sterility of each lumen was determined according to MCB-09-A04 rev. 7 by quantitative recovery using the ultrasound technique followed by filtration. […]

spores [3] = assay: Sterilization by evaporated hydrogen peroxide solution alone or followed by ozone; assay type: cell-based
Excerpt: Indeed the evaporated hydrogen peroxide solution injected into the chamber is not sufficient to achieve sterilization, although a 4 log reduction in spores has been observed. […] Such complete sterilization could not be achieved using only the injection of evaporated hydrogen peroxide solution, independent of the amount of hydrogen peroxide solution used and the concentration of the solution. Moreover, high concentrations of hydrogen peroxide reduce compatibility with some instruments. […] In fact the dwelling time after hydrogen peroxide injection appears to have no effect on sterilization efficacy.

[4] = test system: spores of G. stearothermophilus; assay: Estimate of spores inactivated by NO / NO2 alone; assay type: cell-based
Protocol: In this experiment, the amount of NO injected was 2 mg/L. Considering that all NO molecules were transformed in NO2, a D-value of 1.9 minutes for a concentration of 2 mg/L of NO2, only 2.5 log of spores would have been inactivated by the NO2. This less than the 6 log present on the inoculated devices. In reality, the conversion rate of NO in NO2 is probably not 100%, and the D-value is more than 1.9 minutes. Thus the number of spores inactivated by NO only is probably more around 1 log.

[5] = test system: spores of G. stearothermophilus; conditions: cited from earlier work

OO [H2O2, hydrogen peroxide]
Sterile lumens Cycle 1 ([1]; half-cycle of Cycle 1, Teflon lumen 1 mm x 80 cm, O3 or O2 2 mg/L, NO 2 mg/L): 50%
Sterile lumens Cycle 2 ([1]; half-cycle of Cycle 2, stainless steel lumen 1 mm x 50 cm, O3 or O2 10 mg/L, NO 2 mg/L): 12.5%
Sterile lumens Cycle 3 ([1]; half-cycle of Cycle 3, Teflon lumen 1 mm x 110 cm, O3 or O2 3 mg/L, NO 2 mg/L): 16%
spore count (spores [2]): zero
reduction in spores (spores [3]; evaporated hydrogen peroxide solution only, no ozone): 4 log

[O]N=O [NO2, nitrogen dioxide]
spores inactivated by the NO2 ([4]; assuming all NO (2 mg/L) transformed into NO2 and a D-value of 1.9 minutes): 2.5 log
D-value ([5]; 3 mg/L): approximately 1.9 minutes
D-value ([5]; 5.12 mg/L NO2): 0.3 min

O=[O+][O-] [ozone]
sterilization result in words (spores [3]; 1-10 mg of ozone per liter of sterilization atmosphere added after evaporated hydrogen peroxide, SAL 10^-6): full and complete sterilization

O=O [oxygen]
sterility result in words, gas replacing ozone after hydrogen peroxide injection [1]: ineffective to replace ozone; also recorded: Sterility was not achieved in two of the three cycles

Nitrogen monoxide
spores inactivated by NO only ([4]; 2 mg/L NO, conversion to NO2 probably not 100%): around 1 log
sterility result in words, gas replacing ozone after hydrogen peroxide injection [1]: complete sterility in all three cycles
